Experimental data as given in patent publication US8501991B2, “P53 activating compounds” (University Court of the University of Dundee, priority 2006, dated 2013).
Where a name gives a salt, the structure may show the parent alone.

How the values were obtained:
SirT1 = SirT1 (Homo sapiens (Human), UniProt Q96EB6); assay: In vitro deacetylation assay (Fluor de Lys SirT1 Fluorescent Activity Assay); assay type: biochemical; conditions: FdL substrate 7 μM, NAD+ 1 mM, 37° C., 1 hour; read-out: SIRT1 inhibition IC50
[1] = tested on: p53-dependent transcription; assay: p53-dependent transcription in T22 RGC-ΔFos-lacZ cells (primary screen, beta-galactosidase/CPRG); assay type: cell-based; conditions: for Bioactivity (relative to JJ91): p53-dependent transcription in T22 RGC-ΔFos-lacZ cells, JJ91 activity taken as 100%
SKNSH-DDp53 cells = assay: FACS analysis of neuroblastoma cells with inactivated p53; assay type: cell-based; conditions: 10 μM, 48 hours, SKNSH cells with inactive p53
Experimental: Neuroblastoma cell lines SKNSH-CMVNeo (with functional p53) and SKNSH-DDp53 (inactivated p53) were used and are described by Smart P, Lane E B, Lane D P, Midgley C, Vojtesek B, Lain S. in Oncogene. 1999 Dec. 2; 18(51):7378-86.
• Seed 50,000 cells per well of a 6 well plate in DMEM-10% FCS Day 2 • Add drugs to cells Day 4 • Add bromodeoxyuridine (BrdU) to 30 μM and incubate cells for 20 minutes. • Remove media from cells and transfer to a 13 ml Falcon tube. Rinse cells with PBS and transfer this also. Trypsinise cells and transfer to tube then finally rinse with PBS again. Once all transferred to tube, pellet cells at 1500 rpm for 5 minutes. • Resuspend cells in 1 ml of PBS and add drop wise to 3 ml of ethanol while vortexing. Incubate for a minimum of 1-2 hours at 4° C. (no maximum). […] Keep on ice in the dark until analysed on the FACScan. • Measure DNA content (propidium iodide fluorescence) and DNA synthesis (BrdU incorporation) by FACScan. […]
Cells were analysed by FACS analysis.

p53 = assay: Western blotting of MCF-7 cell extracts; assay type: cell-based; conditions: MCF-7 cells, 10 μM
Experimental: • Seed 50,000 cells per well of a 6 well plate in DMEM-10% FCS Day 2 • Add drugs to cells Day 4 • Add bromodeoxyuridine (BrdU) to 30 μM and incubate cells for 20 minutes. • Remove media from cells and transfer to a 13 ml Falcon tube. Rinse cells with PBS and transfer this also. Trypsinise cells and transfer to tube then finally rinse with PBS again. Once all transferred to tube, pellet cells at 1500 rpm for 5 minutes. • Resuspend cells in 1 ml of PBS and add drop wise to 3 ml of ethanol while vortexing. Incubate for a minimum of 1-2 hours at 4° C. (no maximum). Day 5 • Pellet by centrifugation at 2,500 rpm for 5 minutes then pour off supernatant. • Prepare 2 ml fresh pepsin solution per tube at 1 mg/ml in 30 mM HCl (pH 1.5) and prewarm to 37° C. • Add 2 ml prewarmed pepsin solution to each tube and mix for 30 mins at 37° C. • Pellet by centrifugation at 2500 rpm for 5 minutes then pour off supernatant (pellets will be clear) • Add 1 ml 2M HCl for 15-20 mins at room temperature (stock bottle is 11.6 M). • Timing is critical—incubating for long periods results in broad DNA peaks. • Top up with PBS then pellet as before. • Wash again with PBS then once in antibody buffer, pelleting cells each time. • Antibody buffer: PBS, 0.5% BSA, 0.5% Tween-20 • Resuspend pellet into 200 μl of Becton Dickinson anti-BrdU antibody diluted 1:50 in antibody buffer. Incubate for 1 h at room temperature. • Wash in PBS and pellet cells. • Resuspend pellet in 200 μl Sigma FITC antibody (#3008) diluted 1:64 in antibody buffer. Incubate for 30 min at room temperature in the dark to prevent the antibody fading. • Wash in PBS and pellet cells. • Resuspend final pellet in 500 μl PBS containing 25 μg/ml propidium iodide counter stain. Keep on ice in the dark until analysed on the FACScan. • Measure DNA content (propidium iodide fluorescence) and DNA synthesis (BrdU incorporation) by FACScan. 3. […]
Levels of the p53 downstream target p21 are increased Actin was analysed as a loading control.

[2] = Blood levels after administration to mice (LC-MS/MS); assay type: in vivo; conditions: 5 mg/kg, intraperitoneal injection
Experimental: Blood levels were determined at the times shown by LC-MS/MS above and the values shown are the means±SD for three determinations.

[3] = tested on: BL2 Burkitt lymphoma cells; assay: Survival of BL2 Burkitt lymphoma cells; assay type: cell-based; conditions: 1 μM to 10 μM in 70% cyclodextrin, 2 hours exposure daily for six days
Experimental: At this time, the number of live cells were counted. After this short exposure, cells were washed to remove the compound. This treatment was repeated daily for six days. Experiments were performed in triplicate and standard deviations indicated.

[4] = tested on: BL2 Burkitt lymphoma xenograft tumours; assay: BL2 Burkitt lymphoma xenograft tumours in SCID mice; assay type: in vivo; conditions: 92 mg/kg daily by intraperitoneal injection, measured to day 11
Experimental: Referring to FIG. 7, BL2 Burkitt lymphoma xenograft tumours in SCID mice were established for 7 days until tumours were palpable. […] Tumour sizes were measured on the day of injection (day 1) and on days 4, 8 and 11 post-injection.

SirT1, sequence (Q96EB6 whole entry): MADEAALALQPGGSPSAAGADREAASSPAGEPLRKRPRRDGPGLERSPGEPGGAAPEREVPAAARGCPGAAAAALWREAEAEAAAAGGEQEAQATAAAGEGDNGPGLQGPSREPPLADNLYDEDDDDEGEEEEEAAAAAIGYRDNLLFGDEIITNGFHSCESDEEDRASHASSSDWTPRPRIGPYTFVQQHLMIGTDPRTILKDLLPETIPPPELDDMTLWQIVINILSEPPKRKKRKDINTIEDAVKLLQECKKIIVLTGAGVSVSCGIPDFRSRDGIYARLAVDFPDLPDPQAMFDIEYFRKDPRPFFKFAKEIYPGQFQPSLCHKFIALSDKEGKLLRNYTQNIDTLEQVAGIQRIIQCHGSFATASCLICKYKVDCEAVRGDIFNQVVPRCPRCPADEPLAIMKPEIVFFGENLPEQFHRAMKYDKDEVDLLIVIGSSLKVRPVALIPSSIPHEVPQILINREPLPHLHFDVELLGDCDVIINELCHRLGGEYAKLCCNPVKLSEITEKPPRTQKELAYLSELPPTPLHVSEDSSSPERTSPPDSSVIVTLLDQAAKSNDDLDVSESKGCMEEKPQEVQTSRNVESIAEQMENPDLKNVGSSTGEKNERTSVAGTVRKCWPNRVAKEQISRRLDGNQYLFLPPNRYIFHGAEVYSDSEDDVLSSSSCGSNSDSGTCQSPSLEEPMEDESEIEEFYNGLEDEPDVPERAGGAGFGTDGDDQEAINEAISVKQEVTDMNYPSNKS

IC50 (SirT1) [µM] | SMILES | Bioactivity (relative to JJ91) [1] | other results
32 ± 9 | CN(C)CCCC(=O)Nc1ccc(NC(=S)NC(=O)c2ccc(C(C)(C)C)cc2)cc1 [Compound 5, N-{4-[3-(4-tert-Butyl-benzoyl)-thioureido]-phenyl}-4-dimethylamino-butyramide hydrochloride] | – | –
16 ± 3 | CN(C)CCCCCC(=O)Nc1ccc(NC(=S)NC(=O)c2ccc(C(C)(C)C)cc2)cc1 [Compound 6, 6-Dimethylamino-hexanoic acid {4-[3-(4-tert-butyl-benzoyl)-thioureido]-phenyl}-amide hydrochloride] | – | –
25 ± 10 | CN(C)CCCCCCCC(=O)Nc1ccc(NC(=S)NC(=O)c2ccc(C(C)(C)C)cc2)cc1 [Compound 7, 8-Dimethylamino-octanoic acid {4-[3-(4-tert-butyl-benzoyl)-thioureido]-phenyl}-amide hydrochloride] | – | –
> 60 | CN(C)CCOCCOCCOCCOCCOCC(=O)Nc1ccc(NC(=S)NC(=O)c2ccc(C(C)(C)C)cc2)cc1 [Compound 8, N-{4-[3-(4-tert-Butyl-benzoyl)-thioureido]-phenyl}-2-[2-(2-{2-[2-(2-dimethylamino-ethoxy)-ethoxy]-ethoxy}-ethoxy)-ethoxy]-acetamide hydrochloride] | – | –
– | CC(C)(C)OC(=O)Nc1ccc(NC(=S)NC(=O)c2ccc(C(C)(C)C)cc2)cc1 [Compound 21, {4-[3-(4-tert-Butyl-benzoyl)-thioureido]-phenyl}-carbamic acid tert-butyl ester] | – | activity in the p53 activation assay (in words) [1]: very good activity
29 | CN(C)CCCCC(=O)Nc1ccc(NC(=O)NC(=O)c2ccc(C(C)(C)C)cc2)cc1 [Compound 24, 5-Dimethylamino-pentanoic acid {4-[3-(4-tert-butyl-benzoyl)-ureido]-phenyl}-amide hydrochloride] | – | –
– | CC(C)C(=O)Nc1ccc(NC(=S)NC(=O)c2ccc(C(C)(C)C)cc2)cc1 [Compound 7322366] | Active (81.2%) | –
– | CC(C)(C)c1ccc(C(=O)NC(=S)Nc2ccc(N)cc2)cc1 [JH129, 1-(4-Amino-phenyl)-3-(4-tert-butyl-benzoyl)-thiourea] | Active (<) | –
– | CC(C)(C)c1ccc(C(=O)NC(=S)Nc2ccc(NC(=O)CCCCBr)cc2)cc1 [JH140, 5-bromo-pentanoic acid {4-[3-(4-tert-butyl-benzoyl)-thioureido]-phenyl}-amide] | Active (87.5%) | –
– | CC(C)(C)c1ccc(C(=O)NC(=S)Nc2ccc(NC(=O)c3ccccc3)cc2)cc1 [JH151] | Active (106.1%) | –
– | CC(C)(C)c1ccc(C(=O)NC(=S)Nc2ccc(NC(=O)CCCCN3CCOCC3)cc2)cc1.Cl [JH156HCl] | Active (59.6%) | –
– | CC(C)(C)c1ccc(C(=O)NC(=S)Nc2ccc(NC(=O)CCCCN3CCOCC3)cc2)cc1 [JH156] | Active (75.4%) | –
– | CC(=O)Nc1ccc(NC(=S)NC(=O)c2ccc(C(C)(C)C)cc2)cc1 [JJ91, N-{4-[3-(4-tert-Butyl-benzoyl)-thioureido]-phenyl}-acetamide] | – | p53 transcription factor function ([1]; T22 RGC-ΔFos-lacZ cells treated 16 hours): activates p53's transcription factor function; effects on DNA synthesis and cell death (SKNSH-DDp53 cells): not observed; levels of the p53 downstream target p21 (p53): increased; p53 levels (p53): rapidly increased; levels of p53 phosphoserine-15 (p53; compared with mitomycin C 10 μM): not as high as those observed with the genotoxic gent mitomycin C; concentrations in blood [2]: reach micromolar concentrations in blood; weight or behavioural changes [2]: do not cause significant weight or behavioural changes; half-life ([2]; mouse, ip, blood): ~1.3 h; BL2 cell survival [3]: largely reduced; growth of BL2 xenograft tumours [4]: reduces growth of BL2 xenograft tumours
